Like-named read-outs stand apart in the source and are kept apart here.
Assays:
[1] = tested on: MCF-7 breast adenocarcinoma cells; assay: MCF-7 Proliferation Assay (tritiated thymidine); type: cell-based; settings: Homo sapiens, MCF7; MCF-7 cells, 48 hours with drug, tritiated thymidine pulse 4 hours; read-out: IC50
Description: MCF-7 breast adenocarcinoma cells (ATCC HTB 22) were maintained in MEM (minimal essential medium, phenol red-free, Sigma, St. Louis, Mo.) supplimented with 10% fetal bovine serum (FBS) (V/V), L-glutamine ([…]), sodium pyruvate (1 mM), HEPES {(N-[2-hydroxyethyl]piperazine-N′-[2-ethanesulfonic acid]10 mM}, non-essential amino acids and bovine insulin (1 ug/mL) (maintenance medium). Ten days prior to assay, MCF-7 cells were switched to maintenance medium supplemented with 10% dextran coated charcoal stripped fetal bovine serum (DCC-FBS) assay medium) in place of 10% FBS to deplete internal stores of steroids. MCF-7 cells were removed from maintenance flasks using cell dissociation medium (Ca++/Mg++ free HBSS (phenol red-free) supplemented with 10 mM HEPES and 2 mM EDTA). Cells were washed twice with assay medium and adjusted to 80,000 cells/mL. Approximately 100 μL (8,000 cells) were added to flat-bottom microculture wells (Costar 3596) and incubated at 37° C. in a 5% CO2 humidified incubator for 48 hours to allow for cell adherence and equilibration after transfer. Serial dilutions of drugs or DMSO as a diluent control were prepared in assay medium and 50 μL transferred to triplicate microcultures followed by 50 μL assay medium for a final volume of 200 μL. After an additional 48 hours at 37° C. in a 5% CO2 humidified incubator, microcultures were pulsed with tritiated thymidine (1 uCi/well) for 4 hours. Cultures were terminated by freezing at −70° C. for 24 hours followed by thawing and harvesting of microcultures using a Skatron Semiautomatic Cell Harvester. Samples were counted by liquid scintillation using a Wallac BetaPlace β counter. Results in Table 4 below show the IC50 for certain compounds of the present invention.

[2] = tested on: ovariectomized (OVX) female Sprague Dawley rats; assay: Serum cholesterol in OVX rats, 4-day dosing; type: in vivo, rat; settings: Rattus norvegicus, po, 96 h, oral daily for 4 days, read-out: Serum Cholesterol (% decrease vs. OVX)
Excerpt: (§1) Seventy-five day old female Sprague Dawley rats (weight range of 200 to 225 g) were obtained from Charles River Laboratories (Portage, Mich.). The animals were either bilaterally ovariectomized (OVX) or exposed to a Sham surgical procedure at Charles River Laboratories, and then shipped after one week. Upon arrival, they were housed in metal hanging cages in groups of 3 or 4 per cage and had ad libitum access to food (calcium content approximately 0.5%) and water for one week. Room temperature was maintained at 22.2°±1.7° C. with a minimum relative humidity of 40%. The photoperiod in the room was 12 hours light and 12 hours dark.
(§2) Dosing Regimen Tissue Collection. After a one week acclimation period (therefore, two weeks post-OVX) daily dosing with test compound was initiated. 17α-ethynyl estradiol or the test compound were given orally, unless otherwise stated, as a suspension in 1% carboxymethylcellulose or dissolved in 20% cyclodextrin. Animals were dosed daily for 4 days. Following the dosing regimen, animals were weighed and anesthetized with a ketamine: Xylazie (2:1, V:V) mixture and a blood sample was collected by cardiac puncture. The animals were then sacrificed by asphyxiation with CO2, the uterus was removed through a midline incision, and a wet uterine weight was determined.
Cholesterol Analysis. Blood samples were allowed to clot at room temperature for 2 hours, and serum was obtained following centrifugation for 10 minutes at 3000 rpm. Serum cholesterol was determined using a Boehringer Mannheim Diagnostics high performance cholesterol assay. Briefly the cholesterol was oxidized to cholest-4-en-3-one and hydrogen peroxide. The hydrogen peroxide was then reacted with phenol and 4-aminophenazone in the pressure of peroxidase to produce a p-quinone imine dye, which was read spectrophotemetrically at 500 nm. Cholesterol concentration was then calculated against a standard curve. The entire assay was automated using a Biomek Automated Workstation.
(§3) Data presented in Table 1 below show comparative results among ovariectomized rats, rats treated with 17α-ethynyl estradiol (EE2; an orally available form of estrogen), and rats treated with certain compounds of the present invention. […] This uterine response to estrogen is well recognized in the art.
(§4) The data presented in the Tables 1 below reflects the response of 5 to 6 rats per treatment.

[3] = tested on: Uterine Eosinophil Peroxidase (EPO); settings: female, Sprague Dawley, rat, in vivo, po, 4 days
Excerpt: as §1, §2
Uterine Eosinophil Peroxidase (EPO) Assay. Uteri were kept at 4° C. until time of enzymatic analysis. The uteri were then homogenized in 50 volumes of 50 mM Tris Buffer (pH −8.0) containing 0.005% Triton X-100. Upon addition of 0.01% hydrogen peroxide and 10 mM O-phenylenediamine (final concentrations) in Tris buffer, increase in absorbance was monitored for one minute at 450 nm. The presence of eosonophils in the uterus is an indication of estrogenic activity of a compound. The maximal velocity of a 15 second interval was determined over the initial, linear portion of the reaction curve.
As is expressed in the below data, estrogenicity also was assessed by evaluating the adverse response to eosinophil infiltration into the uterus.
as §4

[4] = tested on: ovariectomized (OVX) female Sprague Dawley rats; settings: rat, in vivo, po, 4 days
Description: In the examples illustrating the methods, a post-menopausal model was used in which effects of different treatments upon circulating lipids were determined.
as §1, §2, §3, §4

[5] = tested on: ovariectomized (OVX) female Sprague Dawley rats; assay: Osteoporosis Test Procedure: distal femur metaphysis X-ray image analysis, OVX rats, 35 days; type: in vivo, rat; settings: Table 2, oral daily 35 days in 20% cyclodextrin, mean ± SEM, OVX control 5.5 ± 0.6, Sham 30.5 ± 4.3
Excerpt: as §1
Following the General Preparation Procedure, infra, the rats were treated daily for 35 days (6 rats per treatment group) and sacrificed by carbon dioxide asphyxiation on the 36th day. The 35 day time period was sufficient to allow maximal reduction in bone density, measured as described herein. At the time of sacrifice, the uteri were removed, dissected free of extraneous tissue, and the fluid contents were expelled before determination of wet weight in order to confirm estrogen deficiency associated with complete ovariectomy. […] The uteri were then placed in 10% neutral buffered formalin to allow for subsequent histological analysis.
The right femurs were excised and digitilized x-rays generated and analyzed by an image analysis program (NIH image) at the distal metaphysis. The proximal aspect of the tibiae from these animals were also scanned by quantitative computed tomography.
In accordance with the above procedures, compounds of the present invention and ethynyl estradiol (EE2) in 20% hydroxypropyl β-cyclodextrin were orally administered to test animals. Distal femur metaphysis data presented in Tables 2 and 3 below are the results of formula I compound treatments compared to intact and ovariectomized test animals. Results are reported as the mean ± the standard error of the mean.

O=C(Oc1ccc(-c2ccc3cc(OC(=O)c4ccccc4)ccc3c2Cc2ccc(OCCN3CCCCC3)cc2)cc1)c1ccccc1 [Example 3, [2-(4-Benzoyloxyphenyl)-6-benzoyloxynaphthalen-1-yl][4-[2-(1-piperidinyl)ethoxy]phenyl]methane]
IC50 [1]: 0.7 nM
inhibition in vivo at 0.01 mg/kg ([2]; dose 0.01 mg/kg): 33.3%
inhibition in vivo at 0.1 mg/kg ([2]; dose 0.1 mg/kg): 56.7%
inhibition in vivo at 1 mg/kg ([2]; dose 1.0 mg/kg): 63.6%
inhibition in vivo at 10 mg/kg ([2]; dose 10.0 mg/kg): 74.7%
Uterine EPO (V. max) ([3]; 0.01 mg/kg): 5.4
Uterine EPO (V. max) ([3]; 0.1 mg/kg): 4.2
Uterine EPO (V. max) ([3]; 1 mg/kg): 4.2
Uterine EPO (V. max) ([3]; 10 mg/kg): 4.8
Uterine Weight (% increase vs. OVX) ([4]; 0.01 mg/kg): 2.0%
Uterine Weight (% increase vs. OVX) ([4]; 0.1 mg/kg): 7.1%
Uterine Weight (% increase vs. OVX) ([4]; 1 mg/kg): 0.0%
Uterine Weight (% increase vs. OVX) ([4]; 10 mg/kg): 4.5%
Distal Femur Metaphysis (X-ray Image Analysis-Gray Score) ([5]; 0.1 mg/kg): 14.5 ± 3.6
Distal Femur Metaphysis (X-ray Image Analysis-Gray Score) ([5]; 1.0 mg/kg): 31.4 ± 5.8
Distal Femur Metaphysis (X-ray Image Analysis-Gray Score) ([5]; 10.0 mg/kg): 26.6 ± 6.3

— patent US6410564B1, “Naphthyl compounds, intermediates, processes, compositions, and methods” (Eli Lilly and Company, priority 1994, dated 2002)
